Assays:
[1] = test system: adhesion of intestinal epithelial cells (HT-29) and monocytic cells (U937) induced by IL-6; assay: Inhibition of IL-6-induced adhesion of monocytes and intestinal epithelial cells; type: cell-based, human; conditions: Homo sapiens, 3 h; test drug 1 μM; IL-6 10 ng/mL; HT-29/U937; read-out: inhibitory activity (%)
Procedure: (§1) The inhibitory activity test for intestinal epithelial cell-monocyte adhesion by IL-6 was performed using the same method as in the case of TNF-α. HT-29 cells were cultured in a 24-well plate at the density of 2×10^5 cells/cm^2, and the test drug was pretreated in a medium containing 1% FBS and 1% PS for 1 hour. Thereafter, 10 μg/mL of BCECF-AM was treated thereto and reacted at 37° C. for 30 minutes. U937 cells loaded with BCECF and IL-6 (10 ng/mL) were reacted with HT-29 cells previously treated with the test drug at 37° C. for 3 hours. Upon completion of the reaction, the medium was removed, and the culture flask was washed twice with PBS to remove non-adherent U937 cells. In the next step, the cells were lysed by treating with 0.1% Triton X-100 (0.1 M Tris) and reacted at room temperature for 30 minutes. Then, fluorescence was measured and quantified using a fluostar optima microplate reader (BMG Labtechnologies, Germany).

[2] = test system: adhesion of intestinal epithelial cells (HT-29) and monocytic cells (U937) induced by TNF-α; assay: Inhibition of TNF-α-induced adhesion of monocytes and intestinal epithelial cells; type: cell-based, human; conditions: Homo sapiens, test drug 1 μM; TNF-α 10 ng/mL; HT-29/U937; read-out: Inhibitory activity (%)
Procedure: as §1, with “HT-29 human colon cancer-derived” for “The inhibitory activity test for intestinal”, “cells and U937 human-derived monocytes were cultured in RPMI 1640 medium containing 10% FBS and 1% penicillin/streptomycin (PS) in a 37° C., 5% CO2 incubator. When” for “cell-monocyte adhesion by IL-6 was performed using”, “cells grew more than 80% of the bottom area of the culture flask, they were passaged at a ratio of 1:3 and used” for “same method as”, “this experiment.” for “the case of TNF-α.”, “TNF-α” for “IL-6”, “Germany) (Carvalho et al., 1996; Thapa et al., 2008).” for “Germany).”

| SMILES | inhibition at 1 µM [1] [%] | inhibition at 1 µM [2] [%] |
| --- | --- | --- |
| Cc1nc(NC(=O)c2sc3cc(F)ccc3c2Cl)c(C)c(C)c1OC(=O)c1ccc(F)cc1 [XI-09, 6-(3-chloro-6-fluorobenzo[b]thiophene-2-carboxamido)-2,4,5-trimethylpyridin-3-yl 4-fluorobenzoate] | 21.2 | 3.4 |
| Cc1nc(NC(=O)c2cc3cccc(Br)c3[nH]2)c(C)c(C)c1O [Compound X-03, 7-bromo-N-(5-hydroxy-3,4,6-trimethylpyridin-2-yl)-1H-indole-2-carboxamide] | 5 | 14.5 |
| COc1c(C)nc(NC(=O)c2sc3cc(F)ccc3c2Cl)c(C)c1C [XI-01, 3-chloro-6-fluoro-N-(5-methoxy-3,4,6-trimethylpyridin-2-yl)benzo[b]thiophene-2-carboxamide] | 4.7 | 9.3 |
| Cc1nc(NC(=O)c2cc3cc(Cl)ccc3[nH]2)c(C)c(C)c1O [Compound X-08, 5-chloro-N-(5-hydroxy-3,4,6-trimethylpyridin-2-yl)-1H-indole-2-carboxamide] | 21.3 | 31 |
| Cc1ccc2c(Cl)c(C(=O)Nc3nc(C)c(O)c(C)c3C)sc2c1 [Compound X-23, 3-chloro-N-(5-hydroxy-3,4,6-trimethylpyridin-2-yl)-6-methylbenzo[b]thiophene-2-carboxamide] | 8.7 | 9.1 |
| COc1ccc2cc(C(=O)Nc3nc(C)c(O)c(C)c3C)[nH]c2c1 [Compound X-12, N-(5-hydroxy-3,4,6-trimethylpyridin-2-yl)-6-methoxy-1H-indole-2-carboxamide] | 46 | ≥ 50 |
| COc1cc2cc(C(=O)Nc3nc(C)c(O)c(C)c3C)[nH]c2cc1OC [Compound X-14, N-(5-hydroxy-3,4,6-trimethylpyridin-2-yl)-5,6-dimethoxy-1H-indole-2-carboxamide] | 29.5 | 36.9 |
| Cc1nc(NC(=O)c2sc3cc(F)ccc3c2Cl)c(C)c(C)c1OCC(=O)NCc1ccccc1 [XI-06, N-(5-(2-(benzylamino)-2-oxoethoxy)-3,4,6-trimethylpyridin-2-yl)-3-chloro-6-fluorobenzo[b]thiophene-2-carboxamide] | 54.1 | ≥ 50 |
| Cc1nc(NC(=O)c2cc3ccc(Cl)cc3[nH]2)c(C)c(C)c1O [Compound X-04, 6-chloro-N-(5-hydroxy-3,4,6-trimethylpyridin-2-yl)-1H-indole-2-carboxamide] | 25.1 | 30.3 |
| Cc1nc(NC(=O)c2sc3cc(Cl)ccc3c2Cl)c(C)c(C)c1O [Compound X-25, 3,6-dichloro-N-(5-hydroxy-3,4,6-trimethylpyridin-2-yl)benzo[b]thiophene-2-carboxamide] | 9 | 19.5 |
| COc1ccc2[nH]c(C(=O)Nc3nc(C)c(O)c(C)c3C)cc2c1 [Compound X-13, N-(5-hydroxy-3,4,6-trimethylpyridin-2-yl)-5-methoxy-1H-indole-2-carboxamide] | 23.4 | 36.7 |
| Cc1nc(NC(=O)c2cc3ccc(Br)cc3[nH]2)c(C)c(C)c1O [Compound X-05, 6-bromo-N-(5-hydroxy-3,4,6-trimethylpyridin-2-yl)-1H-indole-2-carboxamide] | 3.4 | 7.5 |
| Cc1nc(NC(=O)c2sc3ccccc3c2Br)c(C)c(C)c1O [Compound X-22, 3-bromo-N-(5-hydroxy-3,4,6-trimethylpyridin-2-yl)benzo[b]thiophene-2-carboxamide] | 19.7 | 26.8 |
| Cc1nc(NC(=O)c2cc3cc(Cl)ccc3o2)c(C)c(C)c1O [Compound X-16, 5-chloro-N-(5-hydroxy-3,4,6-trimethylpyridin-2-yl)benzofuran-2-carboxamide] | 15.1 | 25.1 |
| Cc1nc(NC(=O)c2sc3cc(F)ccc3c2Cl)c(C)c(C)c1OC(=O)c1ccc(Cl)cn1 [XI-14, 6-(3-chloro-6-fluorobenzo[b]thiophene-2-carboxamido)-2,4,5-trimethylpyridin-3-yl 5-chloropicolinate] | 26.8 | 38.1 |
| Cc1nc(NC(=O)c2cc3cc(C(F)(F)F)ccc3[nH]2)c(C)c(C)c1O [Compound X-10, N-(5-hydroxy-3,4,6-trimethylpyridin-2-yl)-5-(trifluoromethyl)-1H-indole-2-carboxamide] | 47.9 | ≥ 50 |
| Cc1nc(NC(=O)c2cc3ccccc3n2C)c(C)c(C)c1O [Compound X-02, N-(5-hydroxy-3,4,6-trimethylpyridin-2-yl)-1-methyl-1H-indole-2-carboxamide] | 21.1 | 29.1 |
| Cc1nc(NC(=O)c2sc3cc(F)ccc3c2Cl)c(C)c(C)c1OC(=O)c1ccccc1 [XI-08, 6-(3-chloro-6-fluorobenzo[b]thiophene-2-carboxamido)-2,4,5-trimethylpyridin-3-yl benzoate] | 6.8 | 7.7 |
| COc1c(C)nc(N(C)C(=O)c2sc3cc(F)ccc3c2Cl)c(C)c1C [XI-02, 3-chloro-6-fluoro-N-(5-methoxy-3,4,6-trimethylpyridin-2-yl)-N-methylbenzo[b]thiophene-2-carboxamide] | 10.9 | 18.5 |
| COc1ccc2c(Cl)c(C(=O)Nc3nc(C)c(O)c(C)c3C)sc2c1 [Compound X-26, 3-chloro-N-(5-hydroxy-3,4,6-trimethylpyridin-2-yl)-6-methoxybenzo[b]thiophene-2-carboxamide] | 38.4 | 45.1 |
| Cc1nc(NC(=O)c2sc3cc(F)ccc3c2Cl)c(C)c(C)c1OC(=O)c1ccc(F)cn1 [XI-12, 6-(3-chloro-6-fluorobenzo[b]thiophene-2-carboxamido)-2,4,5-trimethylpyridin-3-yl 5-fluoropicolinate] | 18 | 31.9 |
| COc1ccc(C(=O)Oc2c(C)nc(NC(=O)c3sc4cc(F)ccc4c3Cl)c(C)c2C)cc1 [XI-11, 6-(3-chloro-6-fluorobenzo[b]thiophene-2-carboxamido)-2,4,5-trimethylpyridin-3-yl 4-methoxybenzoate] | 67 | 77.2 |
| Cc1nc(NC(=O)c2sc3cc(F)ccc3c2Cl)c(C)c(C)c1OCC(=O)NC1CC1 [XI-04, 3-chloro-N-(5-(2-(cyclopropylamino)-2-oxoethoxy)-3,4,6-trimethylpyridin-2-yl)-6-fluorobenzo[b]thiophene-2-carboxamide] | 6.5 | 13.9 |
| Cc1nc(NC(=O)c2sc3ccccc3c2Cl)c(C)c(C)c1O [Compound X-21, 3-chloro-N-(5-hydroxy-3,4,6-trimethylpyridin-2-yl)benzo[b]thiophene-2-carboxamide] | 11.4 | 13.4 |
| Cc1nc(NC(=O)c2cc3ccccc3[nH]2)c(C)c(C)c1O [Compound X-01, N-(5-hydroxy-3,4,6-trimethylpyridin-2-yl)-1H-indole-2-carboxamide] | 34 | 43.2 |
| Cc1nc(NC(=O)c2sc3cc(F)ccc3c2Cl)c(C)c(C)c1OC(=O)c1ccc(F)nc1 [XI-13, 6-(3-chloro-6-fluorobenzo[b]thiophene-2-carboxamido)-2,4,5-trimethylpyridin-3-yl 6-fluoronicotinate] | 15.2 | 20.7 |
